From the supplement of paper PMC11451515

Tested on: SEM cells
Assay: cell viability relative to DMSO control; higher = less cytotoxic
Conditions: 48 h
How it was run: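 Viability, reported as a per-plate percentage of DMSO wells with cell-free wells as background, came from CellTiter-Glo One luminescence. Reading took place after 48 h at 37°C. Before that, NOMO1 or SEM (500 cells/well) or P12-Ichikawa (1000 cells/well) leukemia cells, adapted for at least four passages in each medium, were seeded in 1536-well plates (5 μl) and pin-dosed with library compounds in DMSO, 47 μM to 0.79 nM over 11 threefold points.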

[1] = HPLM + 10% dialyzed FBS, 0.000781 µM
[2] = HPLM + 10% dialyzed FBS, 0.00234 µM
[3] = HPLM + 10% dialyzed FBS, 0.00702 µM
[4] = HPLM + 10% dialyzed FBS, 0.0211 µM
[5] = HPLM + 10% dialyzed FBS, 0.0632 µM
[6] = HPLM + 10% dialyzed FBS, 0.19 µM
[7] = HPLM + 10% dialyzed FBS, 0.569 µM
[8] = HPLM + 10% dialyzed FBS, 1.71 µM
[9] = HPLM + 10% dialyzed FBS, 5.12 µM
[10] = HPLM + 10% dialyzed FBS, 15.4 µM
[11] = HPLM + 10% dialyzed FBS, 46.1 µM
[12] = RPMI 5 mM glucose + 10% FBS, 0.000781 µM
[13] = RPMI 5 mM glucose + 10% FBS, 0.00234 µM
[14] = RPMI 5 mM glucose + 10% FBS, 0.00702 µM
[15] = RPMI 5 mM glucose + 10% FBS, 0.0211 µM
[16] = RPMI 5 mM glucose + 10% FBS, 0.0632 µM
[17] = RPMI 5 mM glucose + 10% FBS, 0.19 µM
[18] = RPMI 5 mM glucose + 10% FBS, 0.569 µM
[19] = RPMI 5 mM glucose + 10% FBS, 1.71 µM
[20] = RPMI 5 mM glucose + 10% FBS, 5.12 µM
[21] = RPMI 5 mM glucose + 10% FBS, 15.4 µM
[22] = RPMI 5 mM glucose + 10% FBS, 46.1 µM
[23] = RPMI 5 mM glucose + 10% dialyzed FBS, 0.000781 µM
[24] = RPMI 5 mM glucose + 10% dialyzed FBS, 0.00234 µM
[25] = RPMI 5 mM glucose + 10% dialyzed FBS, 0.00702 µM
[26] = RPMI 5 mM glucose + 10% dialyzed FBS, 0.0211 µM
[27] = RPMI 5 mM glucose + 10% dialyzed FBS, 0.0632 µM
[28] = RPMI 5 mM glucose + 10% dialyzed FBS, 0.19 µM
[29] = RPMI 5 mM glucose + 10% dialyzed FBS, 0.569 µM
[30] = RPMI 5 mM glucose + 10% dialyzed FBS, 1.71 µM
[31] = RPMI 5 mM glucose + 10% dialyzed FBS, 5.12 µM
[32] = RPMI 5 mM glucose + 10% dialyzed FBS, 15.4 µM
[33] = RPMI 5 mM glucose + 10% dialyzed FBS, 46.1 µM

| Compound | cell viability [1] [%] | cell viability [2] [%] | cell viability [3] [%] | cell viability [4] [%] | cell viability [5] [%] | cell viability [6] [%] | cell viability [7] [%] | cell viability [8] [%] | cell viability [9] [%] | cell viability [10] [%] | cell viability [11] [%] | cell viability [12] [%] | cell viability [13] [%] | cell viability [14] [%] | cell viability [15] [%] | cell viability [16] [%] | cell viability [17] [%] | cell viability [18] [%] | cell viability [19] [%] | cell viability [20] [%] | cell viability [21] [%] | cell viability [22] [%] | cell viability [23] [%] | cell viability [24] [%] | cell viability [25] [%] | cell viability [26] [%] | cell viability [27] [%] | cell viability [28] [%] | cell viability [29] [%] | cell viability [30] [%] | cell viability [31] [%] | cell viability [32] [%] | cell viability [33] [%] |
| --- | --- | --- | --- | --- | --- | --- | --- | --- | --- | --- | --- | --- | --- | --- | --- | --- | --- | --- | --- | --- | --- | --- | --- | --- | --- | --- | --- | --- | --- | --- | --- | --- | --- |
| CN(C)c1ccc2nc3ccc(N(C)C)cc3[s+]c2c1 | 89.6 | 51.3 | 99.7 | 104 | 104 | 117 | 114 | 102 | 97 | 18.6 | 5.42 | 82.6 | 44.9 | 89.8 | 97.6 | 91.1 | 111 | 79.7 | 85.7 | 87.2 | 73.7 | 6.3 | 86.7 | 38.2 | 80 | 89.2 | 92.7 | 91.2 | 90.1 | 91.1 | 78.7 | 46.8 | 6.19 |
| CC(C)N(C[C@H]1O[C@@H](n2cnc3c(N)ncnc32)[C@H](O)[C@@H]1O)[C@H]1C[C@@H](CCc2nc3cc(C(C)(C)C)ccc3[nH]2)C1 | 85.1 | 87.1 | 101 | 90.5 | 82 | 95.7 | 96.6 | 100 | 82 | 85.4 | 4.22 | 104 | 124 | 131 | 112 | 115 | 128 | 102 | 36.3 | 19 | 21 | 5.01 | 86.3 | 100 | 105 | 88.2 | 92.8 | 103 | 113 | 100 | 47.6 | 49 | 4.49 |
| C[N]1C=C(C2=CC=CC=C12)\C3=C(\C(=O)NC3=O)C4=C[N](C5CCN(CC5)CC6=NC=CC=C6)C7=C4C=CC=C7 | 98.6 | 113 | 102 | 119 | 114 | 116 | 125 | 118 | 112 | 71.6 | 109 | 95.2 | 108 | 114 | 119 | 112 | 104 | 111 | 93.3 | 102 | 66.4 | 87.5 | 98.6 | 124 | 109 | 118 | 118 | 127 | 119 | 111 | 101 | 69.2 | 117 |
| N#C/C(=C\c1ccc(O)c(O)c1)C(=O)NCc1ccccc1 | 103 | 103 | 109 | 113 | 113 | 102 | 93.2 | 104 | 105 | 72.8 | 37.2 | 103 | 100 | 101 | 105 | 114 | 111 | 107 | 112 | 96.4 | 80.2 | 9.69 | 111 | 107 | 96.4 | 106 | 114 | 102 | 104 | 101 | 101 | 69 | 26.4 |
| COc1cc2ncn(-c3cc(OCc4ccccc4[S+](C)(=O)[O-])c(C#N)s3)c2cc1OC | 102 | 102 | 90.9 | 105 | 95.1 | 98.3 | 98.3 | 103 | 78.5 | 95.7 | 82.4 | 114 | 110 | 100 | 124 | 121 | 110 | 108 | 107 | 94.4 | 122 | 93.4 | 92.4 | 107 | 89.1 | 103 | 98.9 | 110 | 112 | 101 | 106 | 98.7 | 78.9 |
| CCn1c(-c2nonc2N)nc2c(C#CC(C)(C)O)ncc(OC[C@H]3CCCNC3)c21 | 78.7 | 83.1 | 87.2 | 86.4 | 75.2 | 82.7 | 76.9 | 66.2 | 70.3 | 43 | 10.5 | 104 | 96.6 | 107 | 94.1 | 75.7 | 99.2 | 96.4 | 64.9 | 77.7 | 60 | 14.8 | 85.8 | 85.2 | 95.8 | 75.7 | 68.6 | 97.1 | 90.7 | 53.9 | 62.8 | 43.6 | 14.1 |
| OC1=CC2=C(C=C1)C(=O)\C(=C(O2)\C3=CC(=C(O)C=C3)O)O | 103 | 116 | 104 | 93.6 | 102 | 99.5 | 102 | 104 | 104 | 93.2 | 32.9 | 111 | 113 | 102 | 111 | 117 | 102 | 102 | 97 | 98.2 | 100 | 22.8 | 84.9 | 98.1 | 89.9 | 91.6 | 99.2 | 96.5 | 103 | 88.5 | 85.9 | 75.1 | 20.1 |
| CCC(C)N1\N=C/N(C1=O)C2=CC=C(C=C2)N3CCN(CC3)C4=CC=C(OC[C@H]5CO[C@@](C[N]6C=NC=N6)(O5)C7=CC=C(Cl)C=C7Cl)C=C4 (stereo partly drawn) | 94.1 | 106 | 119 | 116 | 119 | 124 | 105 | 122 | 120 | 112 | 107 |  |  |  |  |  |  |  |  |  |  |  | 78.4 | 116 | 115 | 116 | 113 | 98.6 | 109 | 115 | 115 | 117 | 105 |
